Reference: ChEMBL document CHEMBL1201862, “PubChem BioAssay data set” (2004)
The source made the active and inactive calls.

Experiments:
[1] = biological target: Melanocortin receptor 4 (Homo sapiens, UniProt P32245); test: MC4R antagonist potency on cAMP, dose response, cell-based, TR-FRET, biased antagonists (AID 602298); format: functional;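 further: antagonist potency against agonist-stimulated cAMP production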
[2] = nonselective inhibitors of cellular cAMP signaling, dose response, counter-screen for MC4R biased antagonist project, cell-based, TR-FRET cAMP detection (AID 602305); format: functional;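 further: U2OS cells stimulated with forskolin near its EC80 as the cAMP inducer; potency is for inhibition of forskolin-stimulated cAMP signaling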
[3] = biological target: Potassium voltage-gated channel subfamily KQT member 2 (Rattus norvegicus, UniProt O88943); test: KCNQ2 potassium channel inhibitors, dose response, cell-based, automated electrophysiology, set II, rat KCNQ2 (AID 588637); format: functional
[4] = biological target: T1, Insulin-degrading enzyme (Homo sapiens, UniProt P14735); test: activators of recombinant IDE enzyme, dose response, counter-screen for IDE activator project, biochemical, fluorescence polarization (AID 588681)
T1 sequence (P14735 whole entry): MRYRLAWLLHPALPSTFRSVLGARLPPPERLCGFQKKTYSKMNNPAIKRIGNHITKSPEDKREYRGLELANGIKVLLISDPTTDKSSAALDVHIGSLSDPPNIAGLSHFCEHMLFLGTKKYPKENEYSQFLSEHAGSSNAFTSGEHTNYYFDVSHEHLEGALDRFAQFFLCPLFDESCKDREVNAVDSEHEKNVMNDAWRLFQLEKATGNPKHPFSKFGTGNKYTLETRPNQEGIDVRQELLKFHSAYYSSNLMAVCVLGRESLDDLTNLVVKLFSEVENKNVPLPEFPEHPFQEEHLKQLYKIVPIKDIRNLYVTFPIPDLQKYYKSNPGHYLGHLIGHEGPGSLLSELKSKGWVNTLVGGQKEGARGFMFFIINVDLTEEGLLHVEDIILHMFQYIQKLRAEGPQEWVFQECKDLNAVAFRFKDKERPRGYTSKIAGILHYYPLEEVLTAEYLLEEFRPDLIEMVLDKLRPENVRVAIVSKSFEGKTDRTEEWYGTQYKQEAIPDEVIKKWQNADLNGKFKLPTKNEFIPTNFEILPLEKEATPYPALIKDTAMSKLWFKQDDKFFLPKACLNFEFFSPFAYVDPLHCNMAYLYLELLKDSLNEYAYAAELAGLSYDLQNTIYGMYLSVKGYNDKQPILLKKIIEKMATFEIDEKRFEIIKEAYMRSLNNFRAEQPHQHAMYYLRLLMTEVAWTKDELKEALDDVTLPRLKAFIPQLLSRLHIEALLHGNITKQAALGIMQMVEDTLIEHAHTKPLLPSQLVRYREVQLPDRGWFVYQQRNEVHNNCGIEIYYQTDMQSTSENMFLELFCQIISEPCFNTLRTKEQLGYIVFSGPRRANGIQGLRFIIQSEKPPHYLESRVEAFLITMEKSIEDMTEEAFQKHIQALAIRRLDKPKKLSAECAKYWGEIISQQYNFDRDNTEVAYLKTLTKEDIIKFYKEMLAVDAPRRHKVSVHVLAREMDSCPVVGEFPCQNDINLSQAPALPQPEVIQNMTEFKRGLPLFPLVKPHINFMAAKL

[5] = biological target: T1, Insulin-degrading enzyme; test: activators of endogenous IDE in HEK cells, dose response, cell-based, fluorescence polarization (AID 588439); format: functional
[6] = test system: HEK293; test: HEK cell cytotoxicity by LDH release, dose response, cytotoxicity control for IDE activator project, fluorescence, HEK cells (AID 588440); format: functional, cell-based; settings: Homo sapiens;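 further: cytotoxicity by LDH release measuring loss of membrane integrity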
[7] = test system: HEK293; test: optical interference in Abeta FP readout, dose response, artefact control for IDE activator project, biochemical, fluorescence polarization (AID 588442); format: functional, cell-based; settings: Homo sapiens

Chain of Potassium voltage-gated channel subfamily KQT member 2 (O88943 whole entry): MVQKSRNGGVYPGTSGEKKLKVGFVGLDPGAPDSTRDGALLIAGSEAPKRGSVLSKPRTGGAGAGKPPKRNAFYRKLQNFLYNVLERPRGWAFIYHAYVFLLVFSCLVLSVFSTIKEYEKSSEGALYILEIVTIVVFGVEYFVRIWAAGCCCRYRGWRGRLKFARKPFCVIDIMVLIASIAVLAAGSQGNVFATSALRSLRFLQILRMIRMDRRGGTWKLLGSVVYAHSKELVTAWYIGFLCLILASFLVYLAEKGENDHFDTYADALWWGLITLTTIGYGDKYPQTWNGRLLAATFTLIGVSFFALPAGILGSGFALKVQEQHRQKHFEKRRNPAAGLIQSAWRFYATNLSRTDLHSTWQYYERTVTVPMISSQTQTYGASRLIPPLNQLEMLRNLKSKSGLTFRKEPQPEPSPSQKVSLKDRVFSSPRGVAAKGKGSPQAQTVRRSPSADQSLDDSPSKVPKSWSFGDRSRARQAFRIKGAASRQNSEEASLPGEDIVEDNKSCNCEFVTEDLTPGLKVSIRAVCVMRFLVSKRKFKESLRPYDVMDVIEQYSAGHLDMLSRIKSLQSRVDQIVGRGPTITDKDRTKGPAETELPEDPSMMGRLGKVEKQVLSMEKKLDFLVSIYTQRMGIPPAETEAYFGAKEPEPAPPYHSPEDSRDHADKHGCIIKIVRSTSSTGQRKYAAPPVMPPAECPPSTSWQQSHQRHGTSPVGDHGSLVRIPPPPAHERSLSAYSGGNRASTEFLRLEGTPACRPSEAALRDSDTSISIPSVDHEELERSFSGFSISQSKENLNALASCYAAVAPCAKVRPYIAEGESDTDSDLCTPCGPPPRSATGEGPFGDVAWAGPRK
Chain of Melanocortin receptor 4 (P32245 whole entry): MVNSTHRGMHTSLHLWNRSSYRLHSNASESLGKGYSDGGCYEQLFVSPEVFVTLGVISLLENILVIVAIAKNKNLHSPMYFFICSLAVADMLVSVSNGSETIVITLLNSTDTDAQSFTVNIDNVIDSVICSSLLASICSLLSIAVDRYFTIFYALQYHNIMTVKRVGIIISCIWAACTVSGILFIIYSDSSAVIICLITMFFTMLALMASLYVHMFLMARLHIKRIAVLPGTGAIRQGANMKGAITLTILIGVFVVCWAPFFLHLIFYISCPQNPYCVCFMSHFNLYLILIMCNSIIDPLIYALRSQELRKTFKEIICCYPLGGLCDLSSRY

## Cc1ccc(-c2nn(-c3ccccc3)cc2NC(=O)CCl)cc1
[1]
  IC50: > 7.18 µM (active)
[2]
  IC50: > 64.6 µM (inactive)

## COc1ccccc1CNC(=O)C(CC(C)C)NC(=O)C1CCC(C)CC1 (configuration not stated)
[3]
  IC50: 0.21 µM (active)

## CCN(CC)CCNC(=O)C[S+]([O-])Cc1nc(-c2ccccc2Cl)oc1C (configuration not stated)
[4]
  EC50: > 54.7 µM (inactive)
[5]
  EC50: > 54.7 µM (inactive)
[6]
  IC50: > 89.2 µM (inactive)
[7]
  EC50: > 55.9 µM (inactive)
